{"source": "the supplement of paper PMC10307832", "assay_in_all_cases": "relative viability (nuclei count vs DMSO), 5 days (fraction); higher = more cells survive", "key": {"OSI-027": {"compound": "COc1cccc2cc(-c3nc([C@H]4CC[C@H](C(=O)O)CC4)n4ncnc(N)c34)[nH]c12 [OSI-027]", "method_in_brief": "(§1)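 Viability was defined as treated-well nuclei divided by vehicle-well nuclei, with the median taken over replicate plates. Cells from lung cancer lines sat overnight at 37 °C in 1536-well plates, received five √10-spaced library-drug doses by pinning on vehicle-anchored plates, and grew 5 days without medium change before one-step fixation, permeabilisation and Hoechst staining, 4× imaging and MetaXpress nuclear counts. Only plates with control CV under 25% and at least one doubling were kept.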"}, "Vemurafenib": {"compound": "CCCS(=O)(=O)Nc1ccc(F)c(C(=O)c2c[nH]c3ncc(-c4ccc(Cl)cc4)cc23)c1F [Vemurafenib]", "method_in_brief": "as §1"}, "Alpelisib": {"compound": "Cc1nc(NC(=O)N2CCC[C@H]2C(N)=O)sc1-c1ccnc(C(C)(C)C(F)(F)F)c1 [Alpelisib]", "method_in_brief": "as §1"}, "Vemurafenib + Olaparib": {"compound": "CCCS(=O)(=O)Nc1ccc(F)c(C(=O)c2c[nH]c3ncc(-c4ccc(Cl)cc4)cc23)c1F [Vemurafenib] + O=C(c1cc(Cc2n[nH]c(=O)c3ccccc23)ccc1F)N1CCN(C(=O)C2CC2)CC1 [Olaparib] (partner 8 µM)", "method_in_brief": "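Lung cancer cell lines in 1536-well plates were dosed by pin tool the day after seeding, either with one drug alone or with a fixed anchor-drug dose plus five library-drug doses (not always all listed) in √10 steps. After 5 days, cells were fixed and their nuclei stained in one step (final 0.05% Triton X-100, 1% formaldehyde, 1 ug/ml Hoechst), then counted on 4× images. Relative viability is the nuclei count in treated wells divided by that in vehicle wells. Values are medians of duplicate plates.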"}}, "data": [{"cell line": "UMC-11", "values": [{"measurement": "relative viability", "setting": "OSI-027; 0.01 µM", "value": 0.913}, {"measurement": "relative viability", "setting": "OSI-027; 0.03162 µM", "value": 0.916}, {"measurement": "relative viability", "setting": "OSI-027; 0.1 µM", "value": 0.808}, {"measurement": "relative viability", "setting": "OSI-027; 0.3162 µM", "value": 0.704}, {"measurement": "relative viability", "setting": "OSI-027; 0.5 µM, anchor plate", "value": 0.49}, {"measurement": "relative viability", "setting": "OSI-027; 1 µM", "value": 0.561}, {"measurement": "relative viability", "setting": "Vemurafenib; 0.03162 µM", "value": 0.923}, {"measurement": "relative viability", "setting": "Vemurafenib; 0.1 µM", "value": 1.02}, {"measurement": "relative viability", "setting": "Vemurafenib; 0.3162 µM", "value": 0.876}, {"measurement": "relative viability", "setting": "Vemurafenib; 1 µM", "value": 0.777}, {"measurement": "relative viability", "setting": "Alpelisib; 0.04 µM", "value": 0.937}, {"measurement": "relative viability", "setting": "Alpelisib; 0.1265 µM", "value": 0.954}, {"measurement": "relative viability", "setting": "Alpelisib; 0.4 µM", "value": 1.01}, {"measurement": "relative viability", "setting": "Alpelisib; 1.265 µM", "value": 0.956}, {"measurement": "relative viability", "setting": "Alpelisib; 2 µM, anchor plate", "value": 1}, {"measurement": "relative viability", "setting": "Alpelisib; 4 µM", "value": 0.826}, {"measurement": "relative viability", "setting": "Vemurafenib + Olaparib; first compound 0.03162 µM", "value": 0.391}, {"measurement": "relative viability", "setting": "Vemurafenib + Olaparib; first compound 0.1 µM", "value": 0.4}, {"measurement": "relative viability", "setting": "Vemurafenib + Olaparib; first compound 0.3162 µM", "value": 0.392}, {"measurement": "relative viability", "setting": "Vemurafenib + Olaparib; first compound 1 µM", "value": 0.375}]}]}
